Patent US20260193268A1, “TRICYCLIC PI3Ka INHIBITOR, PREPARATION METHOD THEREFOR, AND PHARMACEUTICAL USE THEREOF” (WIGEN BIOMEDICINE TECHNOLOGY (SHANGHAI) CO., LTD., priority 2022, published 2026)
Read-outs that look alike come from different tables or passages of the source.

What was measured:
[1] = test system: MCF-7 cells (with PI3Kα E545K mutation); assay: In vitro inhibition of MCF-7 cell proliferation (CellTiter-Lumi); assay type: cell-based; settings: Homo sapiens, MCF7, 144 h
Description: Biological Example 3. Assay for In Vitro Inhibition of MCF-7 Cell Proliferation by Compounds of the Present Disclosure
MCF-7 cells (with PI3Kα E545K mutation) were seeded into a 384-well plate (Fisher 142762) at 2000 cells per well. The next day, serially diluted compounds were added, and 144 h after the addition, CellTiter-Lumi (Beyotime C0068XL) was added to measure the ATP content in the cells. The growth of the cells was evaluated, and the IC50 for the inhibition of cell growth by the compounds was calculated.

[2] = test system: HCC1954 cells (with PI3Kα H1047R mutation); assay: In vitro inhibition of HCC1954 cell proliferation (CellTiter-Lumi); assay type: cell-based; settings: Homo sapiens, HCC1954, 144 h
Description: Assay for In Vitro Inhibition of HCC1954 Cell Proliferation by Compounds of the Present Disclosure
The growth of the cells was evaluated, and the IC50 for the inhibition of cell growth by the compounds was calculated.

[3] = numeric values, read-out: Inhibitory activity against MCF-7 cells (IC50)
[4] = HCC1954 cells, 144 h, CellTiter-Lumi, numeric values, read-out: Inhibitory activity against HCC1954 cells (IC50)
[5] = class symbols, read-out: Inhibitory activity against MCF-7 cells (IC50), class symbols
[6] = HCC1954 cells, 144 h, CellTiter-Lumi, class symbols, read-out: Inhibitory activity against HCC1954 cells (IC50), class symbols
[7] = read-out: Inhibitory activity against HCC1954 cells (IC50), class symbols

Structure (SMILES)	IC50 [1, 3]	IC50 [2, 4]	IC50 [1, 5]	IC50 [2, 6]	IC50 [2, 7]
C=CC(=O)Nc1ccc(N2CC(N3CCN(c4ccc5c(c4)-c4nc(N6C(=O)OC[C@H]6C(F)F)cn4CCO5)CC3)C2)cc1OC(F)(F)F [Compound 279]	0.1 nM	2.8 nM			
CC(=O)N1CCN(C(C)(C)C=C(C#N)C(=O)Nc2ccc(N3CC(N4CCN(c5ccc6c(c5)-c5nc(N7C(=O)OC[C@H]7C(F)F)cn5CCO6)CC4)C3)cc2)CC1 [Compound 310]			< 50 nM	< 50 nM	
COC1(C=C(C#N)C(=O)Nc2ccc(N3CC(N4CCN(c5ccc6c(c5)-c5nc(N7C(=O)OC[C@H]7C(F)F)cn5CCO6)CC4)C3)cc2)CC1 [Compound 282]			< 50 nM	< 50 nM	
C=C(F)C(=O)Nc1ccc(N2CC(N3CCN(c4ccc5c(c4)-c4nc(N6C(=O)OC[C@H]6C(F)F)cn4CCO5)CC3)C2)cc1 [Compound 99]	11 nM	53 nM			
C=CC(=O)Nc1ccc(N2CC(N3CCN(c4ccc5c(c4)-c4nc(N6C(=O)OC[C@H]6C(F)F)cn4CCO5)CC3)C2)cc1F [Compound 124]	2.7 nM	9 nM			
C=CC(=O)Nc1ccc(N2CC(N3CCN(c4ccc5c(c4)-c4nc(N6C(=O)OC[C@H]6CF)cn4CCO5)CC3)C2)cc1 [Compound 176]	0.2 nM	4.9 nM			
N#C/C(=C\CN)C(=O)Nc1ccc(N2CC(N3CCN(c4ccc5c(c4)-c4nc(N6C(=O)OC[C@H]6C(F)F)cn4CCO5)CC3)C2)cc1 [Compound 184]			< 50 nM	< 50 nM	
N#CC(=CC1(N)CC1)C(=O)Nc1ccc(N2CC(N3CCN(c4ccc5c(c4)-c4nc(N6C(=O)OC[C@H]6C(F)F)cn4CCO5)CC3)C2)nc1 [Compound 253]			< 50 nM	< 50 nM	
CC(C)(C=C(C#N)C(=O)Nc1ccc(N2CC(N3CCN(c4ccc5c(c4)-c4nc(N6C(=O)OC[C@H]6C(F)F)cn4CCO5)CC3)C2)cc1)NCCO [Compound 383]			< 50 nM	< 50 nM	
CN1CCN(C(C)(C)C=C(C#N)C(=O)Nc2ccc(N3CC(N4CCN(c5ccc6c(c5)-c5nc(N7C(=O)OC[C@H]7C(F)F)cn5CCO6)CC4)C3)cc2)CC1=O [Compound 308]			< 50 nM	< 50 nM	
C=CC(=O)Nc1ccc(CCN2CCN(c3ccc4c(c3)-c3nc(N5C(=O)OC[C@H]5C(F)F)cn3CCO4)CC2)cc1 [Compound 16]	7 nM	63 nM			
CC(C)(C=C(C#N)C(=O)Nc1ccc(N2CC(N3CCN(c4ccc5c(c4)-c4nc(N6C(=O)OC[C@H]6C(F)F)cn4CCO5)CC3)C2)c(Cl)c1)N1CCC1 [Compound 354]			< 50 nM	< 50 nM	
CC(C)(C=C(C#N)C(=O)Nc1ccc(N2CC(N3CCN(c4ccc5c(c4)-c4nc(N6C(=O)OC[C@H]6C(F)F)cn4CCO5)CC3)C2)cc1)NCC1CCO1 (stereo partly drawn) [Compound 382]			< 50 nM	< 50 nM	
Cc1nc(-c2cn3c(n2)-c2cc(N4CCN(C5CN(c6ccc(NC(=O)C(C#N)=CC(C)(C)NC(=O)OC(C)(C)C)cn6)C5)CC4)ccc2OCC3)n(C(C)C)n1 [Compound 372]			< 50 nM	< 50 nM	
C=CC(=O)Nc1ncc(N2CC(N3CCN(c4ccc5c(c4)-c4nc(N6C(=O)OC[C@H]6C(F)F)cn4CCO5)CC3)C2)cc1C [Compound 163]	0.5 nM	6.6 nM			
C=CC(=O)N1CC(CN2CC(N3CCN(c4ccc5c(c4)-c4nc(N6C(=O)OC[C@H]6C(F)F)cn4CCO5)CC3)C2)C1 [Compound 91]	11 nM	154 nM			
CC(C)(C=C(C#N)C(=O)Nc1ccc(N2CC(N3CCN(c4ccc5c(c4)-c4nc(N6C(=O)OC[C@H]6C(F)F)cn4CCO5)CC3)C2)cc1)N1CCOCC1 [Compound 138]	35 nM	109 nM			
N#CC(=CC1CCCC1)C(=O)Nc1ccc(N2CC(N3CCN(c4ccc5c(c4)-c4nc(N6C(=O)OC[C@H]6C(F)F)cn4CCO5)CC3)C2)cc1 [Compound 393]			< 50 nM	< 50 nM	
CN(C1COC1)C(C)(C)C=C(C#N)C(=O)Nc1ccc(N2CC(N3CCN(c4ccc5c(c4)-c4nc(N6C(=O)OC[C@H]6C(F)F)cn4CCO5)CC3)C2)nc1 [Compound 238]			< 50 nM	< 50 nM	
C=C(C)C(=O)Nc1ccc(N2CC(N3CCN(c4ccc5c(c4)-c4nc(N6C(=O)OC[C@H]6C(F)F)cn4CCO5)CC3)C2)cc1 [Compound 100]	22 nM	66 nM			
CC(C)C=C(C#N)C(=O)Nc1cnc(N2CC(N3CCN(c4ccc5c(c4)-c4nc(N6C(=O)OC[C@H]6C(F)F)cn4CCO5)CC3)C2)nc1 [Compound 262]			< 50 nM	< 50 nM	

Structure (SMILES)	IC50 [1, 3]	IC50 [2, 4]	IC50 [1, 5]	IC50 [2, 6]	IC50 [2, 7]
COCCNC(C)(C)C=C(C#N)C(=O)Nc1cnc(N2CC(N3CCN(c4ccc5c(c4)-c4nc(N6C(=O)OC[C@H]6C(F)F)cn4CCO5)CC3)C2)nc1 [Compound 268]			< 50 nM	< 50 nM	
CC(C)(C=C(C#N)C(=O)Nc1ccc(N2CC(N3CCN(c4ccc5c(c4)-c4nc(N6C(=O)OC[C@H]6C(F)F)cn4CCO5)CC3)C2)cc1)N1CC(C2COC2)C1 [Compound 314]			< 50 nM	< 50 nM	
C=CC(=O)Nc1ccc(N2CCC(/C=C/c3ccc4c(c3)-c3nc(N5C(=O)OC[C@H]5C(F)F)cn3CCO4)CC2)cc1 [Compound 209]			< 50 nM	50 to 100 nM	
CC(C)(N)C=C(C#N)C(=O)Nc1ccc(N2CC(N3CCN(c4ccc5c(c4)-c4nc(N6C(=O)OC[C@H]6C(F)F)cn4CCO5)CC3)C2)c(F)c1 [Compound 224]			< 50 nM	< 50 nM	
Cc1nc(-c2cn3c(n2)-c2cc(N4CCN(C5CN(c6ccc(NC(=O)C(C#N)=CC(C)(C)C)c(Cl)c6)C5)CC4)ccc2OCC3)n(C(C)C)n1 [Compound 370]			< 50 nM	< 50 nM	
CN(C)CC#CC(=O)Nc1ccc(N2CC(N3CCN(c4ccc5c(c4)-c4nc(N6C(=O)OC[C@H]6C(F)F)cn4CCO5)CC3)C2)cc1 [Compound 153]	0.8 nM	10 nM			
CCOP(=O)(NC(C)(C)C=C(C#N)C(=O)Nc1ccc(N2CC(N3CCN(c4ccc5c(c4)-c4nc(N6C(=O)OC[C@H]6C(F)F)cn4CCO5)CC3)C2)cc1)OCC [Compound 332]			< 50 nM		< 50 nM
CNC(C)(C)C=C(C#N)C(=O)Nc1ccc(N2CC(N3CCN(c4ccc5c(c4)-c4nc(-c6nc(C)nn6C(C)C)cn4CCO5)CC3)C2)cc1 [Compound 337]			< 50 nM	< 50 nM	
CNC(C)(C)C=C(C#N)C(=O)Nc1ccc(N2CCC(N3CCN(c4ccc5c(c4)-c4nc(N6C(=O)OCC6C(F)F)cn4CCO5)CC3)C2)cc1 (stereo not drawn) [Compound 215]			< 50 nM	< 50 nM	
CC(C)(C=C(C#N)C(=O)Nc1ccc(N2CC(N3CCN(c4ccc5c(c4)-c4nc(N6C(=O)OC[C@H]6C(F)F)cn4CCO5)CC3)C2)c(F)c1)NC(=O)OC(C)(C)C [Compound 345]			< 50 nM	< 50 nM	
CC(C)(C=C(C#N)C(=O)Nc1ccc(N2CC(N3CCN(c4ccc5c(c4)-c4nc(N6C(=O)OC[C@H]6C(F)F)cn4CCO5)CC3)C2)c(F)c1)N1CC2(COC2)C1 [Compound 228]			< 50 nM	< 50 nM	
CN(C)C/C=C/C(=O)Nc1ccc(N2CC(N3CCN(c4ccc5c(c4)-c4nc(N6C(=O)OC[C@H]6C(F)F)cn4CCO5)CC3)C2)cn1 [Compound 148]	0.2 nM	10 nM			
CNC(C)(C)C=C(C#N)C(=O)Nc1ccc(N2CC(N3CCN(c4ccc5c(c4)-c4nc(N6C(=O)OC[C@H]6C(F)F)cn4CCO5)CC3)C2)nn1 [Compound 299]			< 50 nM	< 50 nM	
CN(C)C/C=C/C(=O)Nc1ncc(N2CC(N3CCN(c4ccc5c(c4)-c4nc(N6C(=O)OC[C@H]6C(F)F)cn4CCO5)CC3)C2)cn1 [Compound 286]			< 50 nM	< 50 nM	
N#CC(=CC1CCCN1)C(=O)Nc1ccc(N2CC(N3CCN(c4ccc5c(c4)-c4nc(N6C(=O)OC[C@H]6C(F)F)cn4CCO5)CC3)C2)cc1 (stereo partly drawn) [Compound 214]			< 50 nM	< 50 nM	
CC(C)(C=C(C#N)C(=O)Nc1ccc(N2CC(N3CCN(c4ccc5c(c4)-c4nc(N6C(=O)OC[C@H]6C(F)F)cn4CCO5)CC3)C2)c(F)c1)N1CCOCC1 [Compound 222]			< 50 nM	< 50 nM	
COCCNC(C)(C)C=C(C#N)C(=O)Nc1ncc(N2CC(N3CCN(c4ccc5c(c4)-c4nc(N6C(=O)OC[C@H]6C(F)F)cn4CCO5)CC3)C2)cn1 [Compound 302]			< 50 nM	< 50 nM	
CC(C)(C)C=C(C#N)C(=O)Nc1ccc(N2CC(N3CCN(c4cc5c(cc4O)OCCn4cc(N6C(=O)OC[C@H]6C(F)F)nc4-5)CC3)C2)cc1 [Compound 317]			< 50 nM	< 50 nM	
C=CC(=O)Nc1ccc(N2CC(N3CCN(c4ccc5c(c4)-c4nc(N6C(=O)OC[C@H]6C(F)F)cn4CCO5)CC3)C2)nn1 [Compound 161]	0.5 nM	2.9 nM			
CCOP(=O)(OCC)OCOC(C)(C)C=C(C#N)C(=O)Nc1ccc(N2CC(N3CCN(c4ccc5c(c4)-c4nc(N6C(=O)OC[C@H]6C(F)F)cn4CCO5)CC3)C2)cc1 [Compound 341]			< 50 nM		< 50 nM
COCCNC(C)(C)C=C(C#N)C(=O)Nc1ccc(N2CC(N3CCN(c4ccc5c(c4)-c4nc(N6C(=O)OC[C@H]6C(F)F)cn4CCO5)CC3)C2)cn1 [Compound 301]			< 50 nM	< 50 nM	
